# Measured values reported in PubChem BioAssay AID1918955 (Molecular Pharmacology Branch, DTP, NCI, 2023).
# System: NCI/ADR-RES complex spheroid viability
# Experiment: Anticancer human tumor NCI/ADR-RES cell line growth inhibition;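 on viability, T/C: 100% = DMSO vehicle treated spheroids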
# Settings: for IC50: curve of first compound; for viability, T/C: stronger effect = lower value
# Summary of the method: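 Complex spheroids of tumor cells with HUVEC and human MSCs, exposed to iadademstat combined with other agents. Each agent tested in half-log steps from near clinical Cmax (else 10 microM top), DMSO ≤0.25%.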
# [1] = second compound 0.1 µM, first compound 0.0316 µM
# [2] = second compound 0.1 µM, first compound 0.1 µM
# [3] = second compound 0.1 µM, first compound 0.316 µM
# [4] = second compound 0.1 µM, first compound 1 µM
# [5] = second compound 0.316 µM, first compound 0.0316 µM
# [6] = second compound 0.316 µM, first compound 0.1 µM
# [7] = second compound 0.316 µM, first compound 0.316 µM
# [8] = second compound 0.316 µM, first compound 1 µM
# [9] = second compound 1 µM, first compound 0.0316 µM
# [10] = second compound 1 µM, first compound 0.1 µM
# [11] = second compound 1 µM, first compound 0.316 µM
# [12] = second compound 1 µM, first compound 1 µM
# [13] = second compound 3.16 µM, first compound 0.0316 µM
# [14] = second compound 3.16 µM, first compound 0.1 µM
# [15] = second compound 3.16 µM, first compound 0.316 µM
# [16] = second compound 3.16 µM, first compound 1 µM
# [17] = second compound 10 µM, first compound 0.0316 µM
# [18] = second compound 10 µM, first compound 0.1 µM
# [19] = second compound 10 µM, first compound 0.316 µM
# [20] = second compound 10 µM, first compound 1 µM
SMILES,IC50 (second compound 0.1 µM) [µM],IC50 (second compound 0.316 µM) [µM],IC50 (second compound 1 µM) [µM],IC50 (second compound 3.16 µM) [µM],IC50 (second compound 10 µM) [µM],"viability, T/C [1] [%]","viability, T/C [2] [%]","viability, T/C [3] [%]","viability, T/C [4] [%]","viability, T/C [5] [%]","viability, T/C [6] [%]","viability, T/C [7] [%]","viability, T/C [8] [%]","viability, T/C [9] [%]","viability, T/C [10] [%]","viability, T/C [11] [%]","viability, T/C [12] [%]","viability, T/C [13] [%]","viability, T/C [14] [%]","viability, T/C [15] [%]",also measured
CC1COCCN1c1cc(-c2ccnn2C)c2ccnc(-c3ccn[nH]3)c2n1 (stereo not given) + NC1CCC(NC2CC2c2ccccc2)CC1,0.0155,0.0163,0.0165,0.0138,0.00744,17.4,4.62,5.9,8.55,16.8,2.98,2.91,2.82,18.8,3.17,7.14,10.6,10.3,2.4,6,"viability, T/C (second compound 0.1 µM, first compound 0.00316 µM): 99.8%; viability, T/C (second compound 0.1 µM, first compound 0.01 µM): 70.3%; viability, T/C (second compound 0.316 µM, first compound 0.00316 µM): 101%; viability, T/C (second compound 0.316 µM, first compound 0.01 µM): 74.4%; viability, T/C (second compound 1 µM, first compound 0.00316 µM): 102%; viability, T/C (second compound 1 µM, first compound 0.01 µM): 74.6%; viability, T/C (second compound 3.16 µM, first compound 0.00316 µM): 92.1%; viability, T/C (second compound 3.16 µM, first compound 0.01 µM): 65.6%; viability, T/C [16]: 2.76%; viability, T/C (second compound 10 µM, first compound 0.00316 µM): 83.9%; viability, T/C (second compound 10 µM, first compound 0.01 µM): 38.2%; viability, T/C [17]: 11.9%; viability, T/C [18]: 2.97%; viability, T/C [19]: 1.89%; viability, T/C [20]: 2.07%"
COc1ccc([C@@H](O)c2cc(-c3ncnc4cc(N5CCOCC5)ccc34)c(F)cc2Cl)nn1 + NC1CCC(NC2CC2c2ccccc2)CC1,3.59,3.97,3.12,2.97,2.06,102,90.2,91.8,89.8,108,105,89.7,82.7,102,97.8,90.6,74.1,101,105,93.6,"viability, T/C (second compound 0.1 µM, first compound 3.16 µM): 52.8%; viability, T/C (second compound 0.1 µM, first compound 10 µM): 26.9%; viability, T/C (second compound 0.316 µM, first compound 3.16 µM): 53.5%; viability, T/C (second compound 0.316 µM, first compound 10 µM): 28.2%; viability, T/C (second compound 1 µM, first compound 3.16 µM): 49.5%; viability, T/C (second compound 1 µM, first compound 10 µM): 27.9%; viability, T/C [16]: 73.3%; viability, T/C (second compound 3.16 µM, first compound 3.16 µM): 50%; viability, T/C (second compound 3.16 µM, first compound 10 µM): 28.5%; viability, T/C [17]: 89.7%; viability, T/C [18]: 86.3%; viability, T/C [19]: 85.6%; viability, T/C [20]: 64.8%; viability, T/C (second compound 10 µM, first compound 3.16 µM): 41.2%; viability, T/C (second compound 10 µM, first compound 10 µM): 24.2%"
